{
  "source": "patent US12128086B2",
  "about": "“Formulations and methods of use for alpha connexin c-terminal (ACT) peptides” (XEQUEL BIO, INC., priority 2012, dated 2024)",
  "origin": "cited, not measured here",
  "key": {"[1]": {"tested_on": "full thickness excisional wounds", "conditions": "adult mice; 100 μM of ACT1 peptide; 5 mm full thickness excisional wounds"}, "[2]": {"tested_on": "full thickness excisional wounds", "conditions": "pigs; 100 μM of ACT1 peptide; 5 mm full thickness excisional wounds"}},
  "note": "Where two headings read alike, the source gives them in different places.",
  "data": [
    {"substance": "Biotin-Ahx-Arg-Gln-Pro-Lys-lle-Trp-Phe-Pro-Asn-Arg-Arg-Lys-Pro-Trp-Lys-Lys-Arg-Pro-Arg-Pro-Asp-Asp-Leu-Glu-lle-OH [Peptide 328967]", "values": [
      {"measurement": "Wound healing versus vehicle control (in words)", "setting": "[1]", "value": "closed faster, appeared less swollen and inflamed, and healed with a smoother and less discolored appearance"},
      {"measurement": "Wound healing versus vehicle control (in words)", "setting": "[2]", "value": "closed faster, appeared less swollen and inflamed, and healed with a smoother and less discolored appearance"}
    ]}
  ]
}
